pIC50: −log10 of the molar value. Where a name gives a salt, the structure may show the parent alone.
Assays:
[1] = system: leukotriene B4 (LTB4) production from human whole blood; assay: Effect on leukotriene B4 (LTB4) production from human whole blood; type: cell-based; settings: Ca ionophore A23187 stimulated, plasma LTB4 by EIA
Procedure: (§1) iii) Effect on leukotriene B4 (LTB4) and TXB2 production from human whole blood […] The incubation was carried out for 5 min and terminated by centrifugation (12,000 rpm for 1-2 min). Resultant plasma was stocked at -70° C. until determination of the levels of LTB4 and TXB2. Plasma levels of LTB4 and TXB2 were determined by commercially available EIA kits (Cayman Chemical Company) following partial purification. The effect of compound tested was expressed as percentage inhibition against the amounts of LTB4 and TXB2 generated in vehicle (50% ethanol solution)-treated group.

[2] = system: TXB2 production from human whole blood; assay: Effect on TXB2 production from human whole blood; type: cell-based; settings: Ca ionophore A23187 stimulated, plasma TXB2 by EIA
Procedure: as §1

[3] = target: T1, human thromboxane A2 synthetase (Homo sapiens, UniProt P24557); assay: Effect on human thromboxane A2 synthetase activity (washed platelets); type: cell-based; settings: conversion of 14C-arachidonic acid into TXB2, 37° C., 2 min
T1 construct: Washed platelet was prepared from citrate-treated [1/9 (v/v)] human peripheral blood; endogenous in cells; host or cells: washed platelets from human peripheral blood
T1 sequence (P24557 1-533): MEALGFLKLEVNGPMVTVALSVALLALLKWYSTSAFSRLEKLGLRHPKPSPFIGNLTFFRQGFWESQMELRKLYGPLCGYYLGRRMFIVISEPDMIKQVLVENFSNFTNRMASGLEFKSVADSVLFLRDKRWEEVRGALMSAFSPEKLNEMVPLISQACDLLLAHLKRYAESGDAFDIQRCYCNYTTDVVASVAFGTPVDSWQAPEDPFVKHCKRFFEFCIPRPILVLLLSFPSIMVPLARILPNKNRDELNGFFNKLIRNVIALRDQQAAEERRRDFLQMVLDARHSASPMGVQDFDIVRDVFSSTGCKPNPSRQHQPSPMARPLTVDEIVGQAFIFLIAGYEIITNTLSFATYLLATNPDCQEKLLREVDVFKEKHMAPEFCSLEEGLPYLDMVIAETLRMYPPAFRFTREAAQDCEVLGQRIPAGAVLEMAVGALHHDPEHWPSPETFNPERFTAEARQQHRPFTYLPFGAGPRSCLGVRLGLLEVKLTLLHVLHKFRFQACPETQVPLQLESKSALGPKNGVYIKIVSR
Procedure: ii) Effect on human thromboxane A2 synthetase activity
Washed platelet was prepared from citrate-treated [1/9 (v/v)] human peripheral blood and suspended in Ca^++ -free Krebs-Henseleit solution (pH 7.4) at a concentration of 10.8×10^7 cells/mi. The assay mixture contained 185 μl of cell suspension, 5 μl of test compound and 10 μl of 100 μM ^14 C-arachidonic acid. Before the reaction was started by the addition of ^14 C-arachidonic acid, the other components were equilibrated for 2 min at 37 ° C. The incubation was carried out at 37° C. for 2 min and terminated by the addition of 300 μl of a mixture of diethyl ether/methanol/1M citric acid (30/4/1). The contents were mixed and then centrifuged for 2 min at 1700 G at 4° C. The products in the resultant organic layer were chromatographed on silica gel thin-layer using a solvent system of a mixture of ethyl acetate/isooctane/acetic acid/H2 O (110/50/20/100) and then autoradiographed on X-ray film. The arachidonic acid metabolites and residual substrate were quantified by chromatoscanner. TXA2 synthetase activity was expressed as the conversion rate of total radioactivity into thromboxane B2 (TXB2), a stable metabolite of TXA2. The effects of compounds tested were expressed as percentage inhibition against the conversion rate of total radioactivity into TXB2 in vehicle (50% ethanol solution)-treated group.

[4] = target: T2, human 5-lipoxygenase (Homo sapiens, UniProt P09917); assay: Effect on human 5-lipoxygenase activity (cytosol fraction of polymorphonuclear leukocytes); type: biochemical; settings: human PMN leukocyte cytosol fraction; 14C-arachidonic acid; 30° C., 1 min, pH 7.4
T2 construct: cytosol fraction of polymorphonuclear leukocytes prepared from human peripheral blood; endogenous in cells; host or cells: polymorphonuclear leukocytes from human peripheral blood (cytosol fraction)
T2 sequence (P09917 1-674): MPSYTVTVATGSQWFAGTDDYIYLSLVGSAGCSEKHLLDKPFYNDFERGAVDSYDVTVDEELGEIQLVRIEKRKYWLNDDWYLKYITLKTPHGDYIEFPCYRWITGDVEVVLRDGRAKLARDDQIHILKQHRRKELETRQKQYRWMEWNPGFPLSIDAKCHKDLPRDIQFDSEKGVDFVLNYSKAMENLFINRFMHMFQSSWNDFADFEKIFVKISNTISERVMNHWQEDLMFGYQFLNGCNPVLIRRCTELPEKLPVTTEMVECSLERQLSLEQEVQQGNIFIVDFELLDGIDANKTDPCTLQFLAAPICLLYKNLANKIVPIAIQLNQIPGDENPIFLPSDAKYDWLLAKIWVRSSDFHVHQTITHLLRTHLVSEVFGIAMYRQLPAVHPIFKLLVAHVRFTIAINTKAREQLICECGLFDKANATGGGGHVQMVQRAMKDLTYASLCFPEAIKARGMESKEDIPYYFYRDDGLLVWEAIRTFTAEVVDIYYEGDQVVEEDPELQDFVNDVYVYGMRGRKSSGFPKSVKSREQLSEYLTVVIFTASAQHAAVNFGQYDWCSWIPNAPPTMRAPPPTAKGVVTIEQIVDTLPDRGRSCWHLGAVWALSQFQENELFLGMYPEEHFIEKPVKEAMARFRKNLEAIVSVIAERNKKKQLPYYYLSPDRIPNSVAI
Procedure: i) Effect on human 5-lipoxygenase activity
The assay mixture consisted of 85 μl of potassium/phosphate buffer (pH 7.4) containing 1.18 mM of calcium ion, 5 μl of cytosol fraction of polymorphonuclear leukocytes prepared from human peripheral blood and 5 μl of test compound. The reaction was initiated by the addition of 5 μl of 1 mM ^14 C-arachidonic acid after 5 min equilibration period. The incubation was carried out at 30° C. for 1 min and terminated by the addition of 300 μl of a ice-cold mixture of diethyl ether/methanol/1M citric acid (30/4/1). The mixture was mixed vigorously and centrifuged at 1700 G for 2 min at 4° C. The resultant organic layer was treated with sodium borohydride, kept cold for more than 10 min and then evaporated to dryness under gentle stream of nitrogen. After 200 μl of a mixture of diethyl ether/methanol (30/4) was added to the test tube, the contents were extracted by the addition of 100 μl of 1M citric acid followed by centrifugation (1700 G for 2 min at 4° C.). The products in the upper layer were chromatographed on silica gel thin-layer with a solvent system of diethyl ether/petroleum ether/acetic acid (85/15/0.01) and autoradiographed on X-ray film. The arachidonic acid metabolites and residual substrate were quantified by chromatoscanner. The 5-lipoxygenase activity was calculated by subtracting the conversion rate of total radioactivity into 15-hydroxy eicosatetraenoic acid from total radioactivity. The effect of compounds tested were expressed as percentage inhibition against 5-lipoxygenase activity in the vehicle (50% ethanol solution)-treated group.

[5] = system: lipid peroxides (TBARS) in rat liver homogenate; assay: Antioxidant action (lipid peroxides as TBARS in rat liver homogenate); type: biochemical, Sprague-Dawley rat; settings: FeCl2-initiated, 1 hr at 37° C.
Procedure: Male Sprague-Dawley rat fasted overnight was anesthetized with diethyl ether, and liver was perfused, isolated and homogenized with 1.15% KCl (10% homogenate). The assay mixture contained 200 μl of liver homogenate, 5 μl of test compound and 10 μl of 4.4 mM FeCl2. The reaction was initiated by the addition of FeCl2, and the incubation was carried out for 1 hr at 37° C. The amounts of lipid peroxides produced during this incubation period were determined as thiobarbituric acid reactive substances (TBARS) according to the method described by OHKAWA et. al. (Analytical Biochemistry, 95, 351-358, 1979). The effects of compounds tested were expressed as percentage inhibition against the amounts of TBARS produced in vehicle (50% ethanol solution)-treated group.

pIC50 [3]	pIC50 [4]	pIC50 [5]	Structure (SMILES)	inhibition at 10 µM [1] [%]	inhibition at 10 µM [2] [%]
			Cc1c(O)c(CCCSc2ccccc2)c2c(c1CCn1ccnc1)OC(C)(C)C2 [2(v)]	61	89
			Cc1c(O)c(CC(C)C)c2c(c1CCn1ccnc1)OC1(CCCC1)C2 [2(x)]	70	82
5.07	6.16	5.59	CC1(C)CCc2c(Cn3ccnc3)c(O)c3ccccc3c2O1 [4(e)]		
			Cc1c(O)c(C(C)C)c2c(c1CCn1ccnc1)OC(C)(C)C2 [Example 2, 5-Hydroxy-2,2,6-trimethyl-4-isopropyl-7(2-(1-imidazolyl)ethyl)-2,3-dihydrobenzofuran hydrochloride]	74	92
5.85	6.32	5.40	COCOc1c(C)c(CCCOc2cccnc2)c2c(c1C)CCC(C)(C)O2 [Example 10]		
6.26	5.96	5.43	Cc1c(O)c(C)c2c(c1CCCOc1cccnc1)OC(C)(C)CC2 [Example 11]		
6.00	6.34		Cc1c(O)c(CCCn2ccnc2)cc2c1CC(C)(C)O2 [Example 13]		
			COC(C)(C)Cc1c(O)c(C)c(CCn2ccnc2)c2c1CC(C)(C)O2 [Example 17]	22	36
